# Source: US20050169948A1, “Method and compositions for treatment of acne vulgaris and acne rosacea” (priority 2004, published 2005)
# Experiments:
# [1] = tested on: acne vulgaris or acne rosacea; test: Clinical studies of topical formulations in acne patients, compared to placebo or to nicotinamide alone; format: in vivo, human; conditions: over one thousand acne patients
# [2] = tested on: skin; conditions: concentrations 1.0% to 10%
SMILES,efficacy in treating acne vulgaris or acne rosacea compared to placebo [1],irritation on continuous or regular topical application [2]
NC(=O)c1cccnc1 [nicotinamide],modestly effective,
O=C(O)c1cccnc1 [nicotinic acid],,too irritating
